Values after ≈ are worked out from the molar mass of the structure shown.
Tests used:
[1] = system: S. cerevisiae (ATCC 9080); assay: Disk diffusion antimicrobial test, S. cerevisiae; assay type: cell-based; details: Saccharomyces cerevisiae, ATCC9080, yeast, 20 mg per disc (title), concentration 20 µg (footnote)
Procedure: (§1) The newly synthesized compounds were chosen to be evaluated in vitro towards a variety of pathogenic microorganisms; Gram-positive bacteria: S. aureus (ATCC 6538) and B. subtilis (ATCC 6633); Gram-negative bacteria: P. areuginosa (ATCC 27853) and E. coli (DSMZ 1058); yeast: C. albicans (ATCC 10231) and S. cerevisiae (ATCC 9080) and fungi: A. niger (NRRL A-326) using the disk diffusion method at a single dose of 20 µl. The results are shown in Table 1 as the growth inhibition zone (mm).
(§2) The antimicrobial activity of target compounds were evaluated to be in vitro against a variety of pathogenic microorganisms, namely Staphylococcus aureus (ATCC 6538), Bacillus subtilis (ATCC 6633) (Gram-positive bacteria), Pseudomonas areuginosa (ATCC 27853), Escherichia coli (DSMZ 1058) (Gram-negative bacteria), Candida albicans (ATCC 10231), Saccharomyces cerevisiae (ATCC 9080) (Yeast) and Aspergillus niger (NRRL A-326) (Fungi) using the disk diffusion method at a single dose of 20 µg. The microorganisms were served and obtained from the Microbial Biotechnology Department, National Research Center, Giza, Egypt. Amphotericin, amoxicillin and ciprofloxacin were used as reference drugs (Oxoid™ Disks). The tested compounds 11a–c, 12a–c, 13a–i, 14a–i and 15a,b were dissolved in dimethylsulphoxide (DMSO) at a concentration of 1 mg/mL. Aliquots of 20 μl were soaked on filter paper discs (6 mm) and dried at room temperature under sterilized conditions. The paper discs were placed on inoculated agar plats and then incubated for 24 h at 37 °C for bacterial strains and after 48–72 h incubation at 30 °C for fungi. Both bacterial and yeast strains were grown on nutrient agar medium (g/l): beef extract, 3; peptone, 10 and agar, 20 at pH of 7.2. The fungal strain was grown on Czapek-Dox medium (g/l): sucrose, 30; NaNO3, 3; MgSO4.7H2O, 0.5l; KCl, 0.5; FeSO4, 0.01; K2HPO4, 1 and agar, 20 at pH of 6.0.

[2] = system: HCT-116 (human colon cancer); assay: MTT cytotoxicity assay, HCT-116; assay type: cell-based; details: Homo sapiens; for inhibition at 100 µg/mL: HCT-116, 100 µg/ml, 48 h, read-out: Growth Inhibition (%) HCT-116; for IC50: HCT-116, 48 h, 48 h post-treatment
Procedure: MCF-7 (human breast cancer), HCT-116 (human colon cancer) and HepG2 (human liver cancer) cell lines were obtained from Karolinska Institute, Stockholm, Sweden. All cells were maintained in RPMI 1640 medium. The media were supplemented with 10% heat-inactivated fetal bovine serum plus 1% antibiotic-antimycoticmixture (10,000 U/mL of potassium penicillin, 10,000 μg/mL of streptomycin sulfate, 25 μg/mL of amphotericin B and 1% of L glutamine (Biowest, USA)). BJ-1 of a human skin fibroblast derived from normal foreskin was obtained from ATCC® CRL-2522™ as a frozen ampoule with about 1 × 10^6 cells per 1 ml volume. BJ-1 was maintained in MEM with 2 mM of L-glutamine and Earle’s salts medium.
Cell viability was studied using the MTT 3-(4,5-dimethylthiazol-2-yl)-2,5-diphenyl-tetrazolium bromide (Bio Basic Canada Inc. Toronto, Canada) assay [33]. The steps were executed in a sterile laminar air flow cabinet biosafety class II level (Baker, SG403INT; Sanford, ME, USA). All incubations were carried out at 37 °C in a 5% CO2 incubator under a humidified atmosphere of 95% (Sheldon, TC2323; Cornelius, OR, USA). Cells were seeded into 96-well microtiter plastic plates at a concentration of (10^4 cells/well) and allowed to adhere for 24 h. The medium was aspirated and then added to the cells with the test compounds 11a–c, 12a–c, 13a–i, 14a–i and 15a,b at a single dose of 100 μg/mL in DMSO. After incubation of the medium for 48 h, 40 μL of MTT salt (2.5 μg/mL) was added to each well and then incubated for an additional 4 h. To stop the reaction and dissolve any formed formazan crystals, 200 μL of 10% sodium dodecyl sulfate (SDS) were added to each well and incubated overnight at 37 °C. The amount of formazan product was measured at 595 nm with a reference wavelength of 690 nm as a background using a microplate reader (Bio-Rad Laboratories, model 3350, California, USA). For the untreated cells (negative control), the medium was added instead of the tested compounds. […] Dimethylsulfoxide (DMSO) was the vehicle used for dissolution of the testing compound, and its final concentration on the cells was less than 0.2%. At the same dilution, the solvent concentration was the same for all drugs and between the control and drug treatments.

caspase-3 = assay: Caspase-3 colorimetric assay in MCF-7 cells; assay type: cell-based, human; details: for Caspase-3 Activity %: MCF-7 cells treated at IC50 concentration, control 10.2 ± 2.84, mean ± SD; for Elevation of active caspase-3 protein levels compared to the control: MCF-7 cells, IC50 concentration
Description: (§3) The promising antiproliferative results reported for compounds 11a, 11b, 12a, 12b and 13c against cell lines under study have prompted us to investigate the mechanism of cell death induced by these compounds. Apoptosis induction was examined in both MCF-7 and HCT-116 cancer cells by assaying the level of its key protein markers, namely: proapoptotic (p53, Bcl 2-associated X, Bax and caspases3) and antiapoptotic (B-cell lymphoma-2, Bcl-2). MCF-7 and HCT-116 cells undergoing apoptosis was detected by use of the ELISA technique. Protein marker levels were quantified according to Bradford assay.
(§4) Briefly, cells ([…] and HCT) were seeded at a concentration of 1.2–1.8 × 10^3 cells/well in 6-well plates. After 48-h treatment, the collected cells were lysed and centrifuged at 10,000 rpm for 20 min at 4 °C. The protein concentration was measured in the supernatant by Bradford protein assay. Volume containing […] of total protein was incubated with […] of caspase substrate in […] of the reaction buffer at 37 °C for 1 h in the dark. Caspase-3 activity was determined by a microplate reader at 405 nm using a caspase-3 colorimetric assay kit (Abcam) according to the manufacturer’s instructions. In vitro protein level quantitative measurement of apoptotic marker p53, Bcl-2-associated X (Bax) and antiapoptotic marker B-cell lymphoma-2 (Bcl-2) in cell lysate were assessed by Enzyme-Linked Immunosorbent Assay Simple Step ELISA® (ab199080, ab119506 and ab171571; Abcam) according to the manufacturer’s instructions.

Bcl-2 [3] = assay: Bcl-2 ELISA in MCF-7 cells; assay type: cell-based, human; details: for Bcl-2 (ng/50 mg Protein): MCF-7 cells treated at IC50 concentration, control 25.13 ± 3.45, mean ± SD; for Reduction of expression level of antiapoptotic protein Bcl-2 compared to the control: MCF-7 cells, IC50 concentration
Description: as §3, §4

p53 = p53 ELISA in MCF-7 cells; assay type: cell-based, human; details: MCF-7 cells treated at IC50 concentration; control 4.18 ± 0.58; mean ± SD
Description: as §3, §4

Bax = Bax ELISA in MCF-7 cells; assay type: cell-based, human; details: MCF-7 cells treated at IC50 concentration; control 39.56 ± 4.56; mean ± SD
Description: as §3, §4

Bcl-2 [4] = assay: Bcl-2 ELISA in HCT-116 cells; assay type: cell-based, human; details: for Bcl-2 (ng/50 mg Protein): HCT-116 cells treated at IC50 concentration, control 23.56 ± 3.56, mean ± SD; for Reduction of expression level of antiapoptotic protein Bcl-2 compared to the control: HCT-116 cells, IC50 concentration
Description: as §3, §4

S. aureus (ATCC 6538) = assay: Disk diffusion antimicrobial test, S. aureus; assay type: cell-based, Staphylococcus aureus; details: Staphylococcus aureus, ATCC6538, Gram-positive, 20 mg per disc (title), concentration 20 µg (footnote)
Procedure: as §1, §2

A. niger (NRRL A-326) = assay: Disk diffusion antimicrobial test, A. niger; assay type: cell-based; details: Aspergillus niger, fungi, 20 mg per disc (title), concentration 20 µg (footnote)
Procedure: as §1, §2

COc1cc2occc2c(OC)c1C1=NNC2(C1)C(=O)Nc1ccccc12 (centres unmarked) [Compound 11b, 5’-(4,6-Dimethoxy-benzofuran-5-yl)-2’,4’-dihydrospiro(indoline-3,3’-pyrazol)-2-one]
zone of inhibition at 20 µg/disc [1]: 18 mm | inhibition at 100 µg/mL [2]: 94.9% | IC50 [2]: 16.4 µg/mL (≈ 45.1 µM) | Caspase-3 Activity % (caspase-3): 16.19 ± 0.79% | Elevation of active caspase-3 protein levels compared to the control (caspase-3): ~ 1.6 folds | Bcl-2 (ng/50 mg Protein) (Bcl-2 [3]): 16.18 ± 0.78 ng/50 mg Protein | p53 (Pg/50 mg Protein) (p53): 5.85 ± 0.75 Pg/50 mg Protein | Bax (pg/50 mg Protein) (Bax): 109.35 ± 4.05 pg/50 mg Protein | Bcl-2 (ng/50 mg Protein) (Bcl-2 [4]): 7.25 ± 1.45 ng/50 mg Protein | Reduction of expression level of antiapoptotic protein Bcl-2 compared to the control (Bcl-2 [4]): ~76%

COc1c(C2=NNC3(C2)C(=O)Nc2ccccc23)c(O)c(OC)c2occc12 (centres unmarked) [Compound 12a, 5’-(6-Hydroxy-4,7-dimethoxy-benzofuran-5-yl)-2’,4’-dihydrospiro(indoline-3,3’-pyrazol)-2-one]
zone of inhibition at 20 µg/disc (S. aureus (ATCC 6538)): 8 mm | zone of inhibition at 20 µg/disc [1]: 10 mm | inhibition at 100 µg/mL [2]: 96.7% | IC50 [2]: 5.8 µg/mL (≈ 15.3 µM) | Caspase-3 Activity % (caspase-3): 14.18 ± 0.74% | Elevation of active caspase-3 protein levels compared to the control (caspase-3): ~1.4 folds | Bcl-2 (ng/50 mg Protein) (Bcl-2 [3]): 13.09 ± 2.27 ng/50 mg Protein | Reduction of expression level of antiapoptotic protein Bcl-2 compared to the control (Bcl-2 [3]): ~52% | p53 (Pg/50 mg Protein) (p53): 13.31 ± 1.08 Pg/50 mg Protein | Bax (pg/50 mg Protein) (Bax): 113.09 ± 1.98 pg/50 mg Protein | Bcl-2 (ng/50 mg Protein) (Bcl-2 [4]): 21.13 ± 1.45 ng/50 mg Protein

COc1c(C2=NNC3(C2)C(=O)Nc2ccccc23)c(OC)c2ccoc2c1OC (centres unmarked) [Compound 12b, 5’-(4,6,7-Trimethoxy-benzofuran-5-yl)-2’,4’-dihydrospiro(indoline-3,3’-pyrazol)-2-one]
zone of inhibition at 20 µg/disc (S. aureus (ATCC 6538)): 10 mm | zone of inhibition at 20 µg/disc [1]: 10 mm | zone of inhibition at 20 µg/disc (A. niger (NRRL A-326)): 8 mm | inhibition at 100 µg/mL [2]: 95.1% | IC50 [2]: 7.9 µg/mL (≈ 20.1 µM) | Caspase-3 Activity % (caspase-3): 47.25 ± 1.89% | Elevation of active caspase-3 protein levels compared to the control (caspase-3): ~4.6 folds | Bcl-2 (ng/50 mg Protein) (Bcl-2 [3]): 12.87 ± 1.84 ng/50 mg Protein | Reduction of expression level of antiapoptotic protein Bcl-2 compared to the control (Bcl-2 [3]): ~51% | p53 (Pg/50 mg Protein) (p53): 29.58 ± 2.53 Pg/50 mg Protein | Bax (pg/50 mg Protein) (Bax): 167.07 ± 4.83 pg/50 mg Protein | Bcl-2 (ng/50 mg Protein) (Bcl-2 [4]): 18.87 ± 1.84 ng/50 mg Protein

COc1c(C2=NNC3(C2)C(=O)Nc2ccccc23)c(O)cc2occc12 (centres unmarked) [Compound 11a, 5’-(6-Hydroxy-4-methoxy-benzofuran-5-yl)-2’,4’-dihydrospiro(indoline-3,3’-pyrazol)-2-one]
zone of inhibition at 20 µg/disc [1]: 16 mm | inhibition at 100 µg/mL [2]: 96.2% | IC50 [2]: 5.7 µg/mL (≈ 16.3 µM) | Caspase-3 Activity % (caspase-3): 16.67 ± 0.67% | Elevation of active caspase-3 protein levels compared to the control (caspase-3): ~ 1.6 folds | Bcl-2 (ng/50 mg Protein) (Bcl-2 [3]): 12.3 ± 2.26 ng/50 mg Protein | Reduction of expression level of antiapoptotic protein Bcl-2 compared to the control (Bcl-2 [3]): ~ 50% | p53 (Pg/50 mg Protein) (p53): 14.45 ± 0.82 Pg/50 mg Protein | Bax (pg/50 mg Protein) (Bax): 122.34 ± 3.45 pg/50 mg Protein | Bcl-2 (ng/50 mg Protein) (Bcl-2 [4]): 8.2 ± 1.26 ng/50 mg Protein | Reduction of expression level of antiapoptotic protein Bcl-2 compared to the control (Bcl-2 [4]): ~ 66%

Source: publication PMC7179167 (Molecules, 2020)
